In patent publication US8580321B2, “Method for reducing the effects of chemotherapy using flagellin related polypeptides” (priority 2003, dated 2013):

What was measured:
[1] = system: mice treated with total body gamma radiation; experiment: Mouse survival after total body gamma irradiation (radioprotection); assay type: in vivo; details: for 30-day survival, 11 Gy / 30-day survival, 14 Gy: s.c. 5.0 μg/mouse (0.2 mg/kg); for 30-day survival, 11 Gy: 1 hour before 11 Gy; for 30-day survival, 14 Gy: 1 hour before 14 Gy
Method: Whole body irradiation of mice with 15 Gy gamma radiation caused death within 8 days from GI syndrome providing a conventional model of radiation induced damage of GI tract. To test whether flagellin was capable of protecting GI epithelium from IR, we tested the effect of i.v.-injected flagellin on the dynamics of mouse lethality after 15 Gy of radiation. […] Irradiation was done 4 hours post treatment. As expected, control irradiated mice (that received PBS i.v.) died between 5 and 8 days post-treatment. […] Intravenous, intraperitoneal and subcutaneous delivery of 0.2 mg/kg of flagellin followed by 13 Gy irradiation afforded similar degree of protection, leading to 85-90% 30-day survival of mice (data not shown). While not being bound by theory, flagellin may be a radioprotectant due to its activation of NF-κB, which presumably acts as an inhibitor of apoptotic death.
The experiments were done similarly to the above-described ones (FIGS. 14 and 15), however, instead of 15Gy, mice received 10Gy, the dose that caused 100% killing in control group by day 13 (FIG. 6).
In order to further estimate the dependence of radioprotective activity of flagellin on the time of treatment, mice were injected at several time points relative to the moment of gamma-irradiation. Experiments were performed essentially as explained above, using intraperitoneal injection of 5 μg/mouse (0.2 mg/kg) of full-length flagellin or, for control mice, 5 μg/mouse (0.2 mg/kg) of bacterial RNA polymerase. The experiments were performed using the NIH-Swiss mouse strain. […] Only −1 h graph is shown for clarity, however, both timepoints (−1 and −2 h) provide similar degree and dynamics of survival.
We next obtained an estimate of radiation dose-dependent protection for flagellin. As shown above (FIG. 7), treatment with flagellin was sufficient for 100% protection against 10 Gy gamma-irradiation (this dose causes death from hematopoietic syndrome) and 90% 30-day survival at 13 Gy (both hematopoietic and GI syndromes). Experiments were performed as described above, using flagellin 5 μg/mouse (0.2 mg/kg), intraperitoneally injected 1 h before irradiation.
As shown above, full-length flagellin provides protection from both hematopoietic and gastrointestinal syndromes. The radioprotective potential of flagellin fragments was similarly tested after gamma-irradiation with 11 Gy (dose that induces hematopoietic syndrome-associated mortality in mice) or 14 Gy (dose that causes death from GI syndrome). Mice (10 animals per group) were injected subcutaneously with 5.0 μg/mouse (0.2 mg/kg) of flagellin or its fragments, AA′ or BB′, and gamma-irradiated 1 hour later.
In order to explore the limits of radioprotection provided by the AA′ fragment, we irradiated mice with 17 Gy and 20 Gy single doses of total body gamma-radiation.
(§1) We tested the ability of AA′ to protect mice that were exposed to it. A group of 20 NIH-Swiss mice were subcutaneously injected with 5 μg/mouse (0.2 mg/kg) of AA′. A second injection of a equal dose of AA′ was administered after 21 (10 mice) and 28 days (another 10 mice), with the time elapsed being sufficient for formation of antibodies. The second injection of AA′ was followed by 13 Gy of whole-body gamma irradiation (1 h post-injection).
Repetitive irradiation within a short period of time may be common, for example, in space radiation events and in clinical radiotherapy regimens. We tested the ability of the AA′ flagellin fragment to protect mice from sub-lethal (4 treatments of 3 Gy) and 100% lethal (4 treatments of 4 Gy) regimens of fractionated gamma-irradiation. Fragment AA′ or saline buffer was given to NIH-Swiss female mice before every irradiation (once a day for 4 days). AA′ was administered as described above for single-dose irradiation (5 μg/mouse, given subcutaneously 1 h before irradiation). […]
We have extensively confirmed that AA′ protects NIH-Swiss and ICR mice from radiation. […]

[2] = system: small intestinal epithelium of irradiated mice; experiment: Pathomorphological analysis of small intestine and skin after gamma irradiation; assay type: in vivo, mouse; details: for intestinal morphology 5 days after 14 Gy: pretreated mice, villi/crypt structure; for radiation-induced disappearance of sebaceous glands: skin, 5 days after 14 Gy
Method: Tissue samples of intestinal mucosa were taken 5 days after 14 Gy irradiation from mice pretreated with flagellin and control mice. Control animals were treated with 5.0 μg/mouse (0.2 mg/kg) bacterial RNA-polymerase. […] Tissue samples (small intestine and skin from the back) were also obtained from mice treated with the AA′ fragment. The results shown in FIG. 17 are areas of typical morphology observed over a set of at least 3 mice.
Flagellin (and CBLB502) may induce NF-κB activity via binding to TLR5. Accordingly, CBLB502-mediated radioprotection may be dependent on the presence and activity of TLR5. MOLF/Ei mice are a known natural model of TLR5 deficiency (Sebastiani G., et. al., Genomics. 2000 Mar. 15; 64(3):230-40). To verify that CBLB502-mediated radioprotection is indeed TLR5-dependent, we tested the protection of small intestine from radiation by CBLB502 in MOLF/Ei and NIH-Swiss mice (FIG. 35). Both strains of mice were given 0.2 mg/kg CBLB502 (AA′) or PBS 0.5 hr before 15 Gy of gamma-irradiation. The samples of small intestine were obtained 4 days after irradiation, stained by hematoxylin-eosin and subjected to pathomorphological analysis.

[3] = assay type: in vivo, mouse; details: for antibody level at 21 day: 21 days after injection
Method: as §1
We also performed an ELISA determination of antibody titers in order to quantify the effect that AA′ has on the immune status of the organism. 96-well plates were coated with flagellin or AA′, […], […], and incubated overnight at +4° C. Blood serum samples collected from mice were added to the wells in several dilutions and incubated overnight followed by 6 hrs reaction with secondary goat anti-mouse IgG HPO-conjugate antibodies. Measurements were performed using a spectrophotometer with a 414 nm filter.

[4] = system: NIH-Swiss mice; assay type: in vivo, mouse; details: repeated administration
Excerpt: Overall immunogenicity of a protein may determines its suitability for repeated use. Antibodies generated by immune system are capable of reducing the therapeutic activity of the protein and also may induce anaphylactic reaction upon second exposure if IgE antibodies are produced against the protein. Thus, any reduction in the amount and variety of antibodies compared to full-length flagellin is an improvement. Accordingly, after repeated introduction of flagellin or its fragments we monitored; a) efficiency of radioprotection afforded at second exposure; b) local and general allergic reactions; and c) antibody titer.
as §1

[5] = system: NF-κB; experiment: EMSA of NF-κB translocation / DNA binding in A549 cells; details: for inducing NF-κB translocation: nuclear extracts of treated A549 lung cancer cells
[6] = 0.2 mg/kg 0.5 hr before 15 Gy, samples 4 days after irradiation
[7] = 5 μg/mouse (0.2 mg/kg) i.p. 1 h before 15 Gy
[8] = 5 μg/mouse i.p. 1 h before irradiation, estimate

Substance: AA′: flagellin fragment (1-177)-Linker-(402-505), SEQ ID NO: 8
- protection against fractionated gamma-irradiation ([1]; 5 μg/mouse s.c. 1 h before every irradiation, 4 treatments of 3 Gy or 4 Gy, NIH-Swiss female mice): significant protection
- survival at day 10, Balb/c mice ([1]; 0.2 mg/kg 30 minutes before 10 Gy, vehicle 0%): 100%
- time of mortality at 17 Gy ([1]; 17 Gy, control mice 6-7 day mortality): 10 to 15 days
- delay of death after supralethal irradiation ([1]; 17 and 20 Gy, versus inactive fragment control): significantly delayed
- survival at day 30, all tested strains ([1]; 129/Sv, DBA/2, Balb/c, CD2F1, 0.2 mg/kg 30 minutes before 10 Gy, vehicle 0-25%): 50-100%
- effect of NS398 on radioprotection ([1]; LPS 2 mg/kg or AA′ 0.2 mg/kg s.c. 1 hr before 13 Gy, with NS398 1 mg/kg i.p., NIH-Swiss): not
- 30-day survival, 11 Gy [1]: 100%
- 30-day survival, 14 Gy [1]: 100%
- 30-day survival after second exposure to AA′ ([1]; second s.c. injection 0.2 mg/kg after 21 or 28 days, 13 Gy 1 h post-injection, NIH-Swiss): 100%
- mortality at 17 Gy ([1]; single dose 17 Gy total body): 100%
- mortality at 20 Gy ([1]; single dose 20 Gy total body): 100%
- intestinal morphology after 15 Gy, NIH-Swiss (TLR5 wild type) mice [2, 6]: preservation of intestinal morphology
- intestinal morphology after 15 Gy, TLR5-deficient MOLF/Ei mice [2, 6]: no improving effect
- intestinal morphology 5 days after 14 Gy [2]: near-normal intestinal morphology
- radiation-induced disappearance of sebaceous glands [2]: prevented
- immunogenicity of the original protein removed ([3]; AA′ versus flagellin): > 95%
- reduction of immunogenicity compared to the original protein ([3]; AA′ versus flagellin): approximately 25 ×
- increase of antibody level at 28 days over 21 day ([3]; serum): about 10%
- antibody level at 21 day ([3]; serum): ~0.8 mg/mL
- local allergic reaction or anaphylaxis [4]: no local allergic reaction or anaphylaxis
- NF-κB Stimulation ([5]; A549 cells, 1 μg/ml, 45 min, EMSA of whole cell extracts): Yes
- level of NF-κB translocation, fragments versus flagellin ([5]; EMSA, A549 cells): comparable
- inducing NF-κB translocation ([5]; EMSA): capable of inducing NF-κB translocation

Substance: flagellin: Salmonella dublin FliC flagellin, 505 amino acids, SEQ ID NO: 1; recombinant full-length protein
- 7-day survival at 15 Gy [1, 7]: 100%
- 30-day survival at 15 Gy [1, 7]: 0%
- DMF30 [1, 8]: 1.75-1.8
- LD50/30 (radiation dose, flagellin-treated mice) [1, 8]: 13.5-14 Gy
- protection from 10Gy (HP syndrome) ([1]; 5 μg/mouse, 10Gy): complete protection
- protection against radiation by gavage delivery ([1]; 50 μg by gavage 1 h before 13 Gy): No protection
- 30-day survival, parenteral routes ([1]; 0.2 mg/kg i.v., i.p., i.m. or s.c., 1 hr before 13 Gy, NIH-Swiss): 85-90%
- 30-day survival of mice ([1]; 0.2 mg/kg intravenous, intraperitoneal or subcutaneous, followed by 13 Gy): 85-90%
- protection against 10 Gy gamma-irradiation ([1]; 10 Gy (hematopoietic syndrome)): 100%
- 30-day survival at 13 Gy ([1]; 13 Gy): 90%
- protection from 10 Gy ([1]; administered 24 hours before 10 Gy): 100%
- survival after 13 Gy irradiation ([1]; i.p. 5 μg/mouse (0.2 mg/kg), injected 1 or 2 hours before, NIH-Swiss mice): ~90%
- protection, 4 h timepoint ([1]; i.p. 5 μg/mouse, injected 4 h before 13 Gy, NIH-Swiss): somewhat lower protection
- protective effect against 13 Gy induced death ([1]; i.p. 5 μg/mouse, injected 24 hours before 13 Gy): no protective effect
- survival after 15 Gy ([1]; i.v., irradiation 4 hours post treatment, 15 Gy, PBS controls died between 5 and 8 days): lived significantly longer
- radioprotectant effect from 13Gy ([1]; injected 1-4 h before 13Gy): effective as a radioprotectant
- approximate DMF (30-day survival) ([1]; mouse, in vivo): greater than 1.5
- 30-day survival, 11 Gy [1]: 100%
- 30-day survival, 14 Gy [1]: 100%
- morphology of small intestinal epithelium after 15 Gy ([2]; i.v. 0.25 mg/kg, 15 Gy, HE stained sections): close to normal morphology
- intestinal morphology 5 days after 14 Gy [2]: near-normal intestinal morphology
- radiation-induced disappearance of sebaceous glands [2]: prevented
- antibody level at 21 day ([3]; serum): around 20 mg/ml
- antibody level at 28 days ([3]; serum, 28 days after injection): around 20 mg/ml
- local allergic reaction or anaphylaxis [4]: no local allergic reaction or anaphylaxis
- inducing NF-κB translocation ([5]; EMSA): capable of inducing NF-κB translocation
